A short description of the assay: Inhibition of rat intestinal maltase.

Consider `O[C@H]1[C@H](O)[C@@H](O)CN2C[C@@H](O)[C@@H](O)[C@H]12` [(-)-uniflorine A], for which the IC50 (in general, the concentration at which inhibition is half-maximal) was 12 µM. `O[C@H]1[C@H]2[C@H](O)[C@H](O)CN2[C@H](O)C[C@H]1O` [uniflorine B]: the midpoint of inhibition, the IC50, lay at 4 µM.

The values are drawn from BindingDB's records for doi:10.1021/np900435d (University of Florence, 2009).
